The record followed here is US8394376B2, “Therapeutic agents for alzheimer's disease and cancer” (The University of Tokyo, priority 2006, dated 2013).

One assay relates to HeLa cells. Description: Cell viability by the MTT method. The class given is cell-based, human. The following applies: final concentration 100 μM, 72 hours, vs untreated, FIG. 12. On the procedure: (§1) HeLa cells or A549 cells (5×10^3 cells) were inoculated onto a 96-well multiplate and treated with DAPT (final concentration: 100 μM) for 72 hours. After the 72-hour treatment, MTT diluted with PBS was added to the plate so that the final MTT concentration was 500 μg/mL, followed by culturing at 37° C. for three to four hours. Thereafter, stop solution (10% SDS, 0.01 M HCl) was added to the plate for termination of reaction, and the plate was allowed to stand still at 37° C. overnight, followed by dissolution of produced formazan. The formazan solution was uniformly mixed through pipetting, and absorbance was measured at 550 nm, to thereby calculate cell viability. […] Subsequently, in order to confirm that this reduction in cell viability was attributed to inhibition of γ-secretase activity, endogenous nicastrin of A549 cells was knocked down through treatment with nicastrin-corresponding short interference RNA (siRNA), and change in cell viability was determined. As a result, in the case of treatment with nicastrin siRNA, cell viability was reduced by about 20%, as compared with the case of treatment with siRNA having a random sequence (scramble) (FIG. 13).
(Tetrazolium dyes change colour on reduction, which living cells bring about.)

A further assay relates to HEK/NΔEGV cells. The assay can be described thus: GAL4-UAS luciferase reporter assay in living cells. The following applies: final concentration 10 μM. The assay is classed as cell-based. The text has this: GAL4/VP16 was bound to NΔE (including N99), in which deletion occurs in the extracellular domain of Notch receptor and which serves as a direct substrate for γ-secretase in a ligand-independent manner, to thereby prepare a construct (NΔEGV, Taniguchi Y., Karlstrom K., Lundkvist J., Mizutani T., Otaka A., Vestling M., Bernstein A., Donoviel D., Lendahl U., Honjo T.: Notch receptor cleavage depends on but is not directly executed by presenilins. Proc. Natl. Acad. Sci. U.S.A 2002, 99: 4014). The construct (NΔEGV) was subcloned into pcDNA3.1 vector (pcDNA3.1-NΔEGV). […]
(§2) HEK/SC100G cells or HEK/NΔEGV cells were inoculated into a 48-well multiplate (2.5×10^4 cells). […] After culturing for 12 hours, cells and a culture supernatant were recovered, and the amount of Aβ was determined through a reporter assay or ELISA.
(§3) The recovered cells were lysed in a lysis buffer (Promega), and the resultant lysate was subjected to the reporter assay. […] The amount of luciferase luminescence was normalized by the concentration of protein (in the case of HEK/SC100G cells), or by the amount of eGFP luminescence (in the case of HEK/NΔEGV cells), to thereby yield relative light unit (RLU). […]
In general terms: Reporter assays use an easily measured gene product as a stand-in for the process of interest.

The next assay relates to A549 cells. Description: Cell viability by the MTT method. The following applies: final concentration 100 μM, 72 hours, vs untreated, FIG. 12. The assay is classed as cell-based, human. On the procedure:
as §1, with “As a result, in the case of treatment with nicastrin siRNA, cell viability was reduced by about 20%, as compared with the case of treatment with siRNA having a random sequence (scramble) (FIG. 13).” left out
Subsequently, the effect of the above-prepared antibodies on survival of A549 cells was examined. Each of the antibodies was added to A549 cells so that the final antibody concentration was 10 μg/mL, and, 96 hours after addition of the antibody, cell viability was determined through the MTT method.

In a further assay the test system is HEK/SC100G cells. Description: GAL4-UAS luciferase reporter assay in living cells. The assay is classed as cell-based. Particulars: final concentration 10 μM.
Text: A preproenkephalin-derived signal peptide was inserted into C99, and GAL4 (i.e., a yeast-derived transcription factor) was inserted immediately downstream of the transmembrance domain of C99, to thereby prepare a construct (SC100G). The construct (SC100G) was subcloned into pcDNA3.1/Hygro vector (Invitroger).
A UAS sequence was inserted upstream of luciferase in pGL3(R2.2) vector (Promega), to thereby prepare a construct (UAS-luc), and the construct was employed as a reporter construct. eGFP was subcloned into pcDNA3 (Invitrogen), and the thus-prepared pcDNA3-eGFP was employed as a control vector for monitoring the number of cells. […]
as §2, §3

For the molecule `C[C@H](NC(=O)Cc1cc(F)cc(F)c1)C(=O)N[C@H](C(=O)OC(C)(C)C)c1ccccc1` [DAPT], the cell viability result with HeLa cells is “no significant difference”; with A549 cells it was “significantly lower”. Moreover, the reporter activity result with HEK/NΔEGV cells and with HEK/SC100G cells was “inhibit reporter activity” each time.
